Experimental data: US20230057568A1, “COMPOUNDS FOR TREATING FAMILIAL DYSAUTONOMIA” (PTC THERAPEUTICS, INC., priority 2019, published 2023)

System: Elongator complex protein 1 (ELP1, also referred to as IKBKAP)
Test: IKBKAP-HTRF Assay
Assay type: cell-based, human
Conditions: FD patient-derived fibroblasts GM04589, 48 hours incubation; for EC2x for IKBKAP protein expression (concentration producing two times the amount of IKBKAP protein vs DMSO vehicle control): 7-point concentration curve; for MFI (maximum fold increase in IKBKAP protein abundance relative to the vehicle control): HTRF
Procedure, shortened: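 Sandwich HTRF (anti-IKAP d2 and K(9+8)) on cell lysates measured IKBKAP protein after overnight 4 °C incubation, read at 665 and 620 nm. Lysates came from FD patient cells exposed 48 hours to 7-point compound dilutions, in triplicate. Outputs: maximum fold increase over vehicle, and EC2× (the concentration giving twice the DMSO-control protein level).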

| SMILES | EC2x for IKBKAP protein expression (concentration producing two times the amount of IKBKAP protein vs DMSO vehicle control) | MFI (maximum fold increase in IKBKAP protein abundance relative to the vehicle control) |
| --- | --- | --- |
| Cc1c(C[C@H](C)N)sc2c(NCc3cccnc3F)nc(Cl)nc12 [Cpd 60, 6-[(2S)-2-aminopropyl]-2-chloro-N-[(2-fluoropyridin-3-yl)methyl]-7-methylthieno[3,2-d]pyrimidin-4-amine] | *** (between >0.02 μM and ≤0.5 μM) | *** (between >2.9 and <3.9) |
| C[C@H](N)c1sc2c(NCc3ccco3)nc(-c3ccccc3)nc2c1-c1ccccc1 [Cpd 61, 6-[(1S)-1-aminoethyl]-N-[(furan-2-yl)methyl]-2,7-diphenylthieno[3,2-d]pyrimidin-4-amine] | * (EC2×>1 μM) | * (MFI<1.9) |
| CC[C@H](N)Cc1sc2c(NCc3ccns3)nc(Cl)nc2c1C [Cpd 62, 6-[(2S)-2-aminobutyl]-2-chloro-7-methyl-N-[(1,2-thiazol-5-yl)methyl]thieno[3,2-d]pyrimidin-4-amine] | **** (between >0.005 μM and ≤0.02 μM) | ***** (>4.9) |
| Cc1c(CCCO)sc2c(NCc3ccco3)nc(Cl)nc12 [Cpd 63, 3-(2-chloro-4-{[(furan-2-yl)methyl]amino}-7-methylthieno[3,2-d]pyrimidin-6-yl)propan-l-ol] | * (EC2×>1 μM) | * (MFI<1.9) |
| Cc1c(C[C@H](C)N)sc2c(NCc3c(F)cncc3F)nc(Cl)nc12 [Cpd 64, 6-[(2S)-2-aminopropyl]-2-chloro-N-[(3,5-difluoropyridin-4-yl)methyl]-7-methylthieno[3,2-d]pyrimidin-4-amine] | **** (between >0.005 μM and ≤0.02 μM) | ***** (>4.9) |
| COc1ccc(-c2c(C[C@H](C)N)sc3c(NCc4ccco4)nc(Cl)nc23)cc1 [Cpd 65, 6-[(2S)-2-aminopropyl]-2-chloro-N-[(furan-2-yl)methyl]-7-(4-methoxyphenyl)thieno[3,2-d]pyrimidin-4-amine] | * (EC2×>1 μM) | * (MFI<1.9) |
| Cc1c(C[C@H](C)CO)sc2c(NCc3ccco3)nc(Cl)nc12 [Cpd 66, (2S)-3-(2-chloro-4-{[(furan-2-yl)methyl]amino}-7-methylthieno[3,2-d]pyrimidin-6-yl)-2-methylpropan-1-ol] | * (EC2×>1 μM) | * (MFI<1.9) |
| Cc1c(CCCN)sc2c(NCc3ccco3)nc(Cl)nc12 [Cpd 67, 6-(3-aminopropyl)-2-chloro-N-[(furan-2-yl)methyl]-7-methylthieno[3,2-d]pyrimidin-4-amine] | * (EC2×>1 μM) | * (MFI<1.9) |
| C[C@H](N)Cc1sc2c(NCc3ccncc3F)nc(Cl)nc2c1Br [Cpd 68, 6-[(2S)-2-aminopropyl]-7-bromo-2-chloro-N-[(3-fluoropyridin-4-yl)methyl]thieno[3,2-d]pyrimidin-4-amine] | ***** (<0.005 μM) | ***** (>4.9) |
| CC[C@H](N)Cc1sc2c(NCc3ncco3)nc(Cl)nc2c1C [Cpd 69, 6-[(2S)-2-aminobutyl]-2-chloro-7-methyl-N-[(1,3-oxazol-2-yl)methyl]thieno[3,2-d]pyrimidin-4-amine] | **** (between >0.005 μM and ≤0.02 μM) | ***** (>4.9) |
| Cc1c(C[C@H](C)CN)sc2c(NCc3ccco3)nc(Cl)nc12 [Cpd 70, 6-[(2S)-3-amino-2-methylpropyl]-2-chloro-N-[(furan-2-yl)methyl]-7-methylthieno[3,2-d]pyrimidin-4-amine] | *** (between >0.02 μM and ≤0.5 μM) | **** (between >3.9 and <4.9) |
| Cc1c(C[C@@H](C)CO)sc2c(NCc3ccco3)nc(Cl)nc12 [Cpd 71, (2R)-3-(2-chloro-4-{[(furan-2-yl)methyl]amino}-7-methylthieno[3,2-d]pyrimidin-6-yl)-2-methylpropan-1-ol] | * (EC2×>1 μM) | * (MFI<1.9) |
| Cc1c(C[C@@H](C)CN)sc2c(NCc3ccco3)nc(Cl)nc12 [Cpd 72, 6-[(2R)-3-amino-2-methylpropyl]-2-chloro-N-[(furan-2-yl)methyl]-7-methylthieno[3,2-d]pyrimidin-4-amine] | *** (between >0.02 μM and ≤0.5 μM) | *** (between >2.9 and <3.9) |
| Cc1c(C[C@H](C)N)sc2c(NCc3ncc[nH]3)nc(Cl)nc12 [Cpd 73, 6-[(2S)-2-aminopropyl]-2-chloro-N-[(1H-imidazol-2-yl)methyl]-7-methylthieno[3,2-d]pyrimidin-4-amine] | *** (between >0.02 μM and ≤0.5 μM) | ** (between >1.9 and <2.9) |
| Cc1c(C[C@H](C)N)sc2c(NCc3cncs3)nc(Cl)nc12 [Cpd 74, 6-[(2S)-2-aminopropyl]-2-chloro-7-methyl-N-[(1,3-thiazol-5-yl)methyl]thieno[3,2-d]pyrimidin-4-amine] | *** (between >0.02 μM and ≤0.5 μM) | **** (between >3.9 and <4.9) |
| Cc1c(C[C@H](C)N)sc2c(NCc3cnco3)nc(Cl)nc12 [Cpd 75, 6-[(2S)-2-aminopropyl]-2-chloro-7-methyl-N-[(1,3-oxazol-5-yl)methyl]thieno[3,2-d]pyrimidin-4-amine] | *** (between >0.02 μM and ≤0.5 μM) | ***** (>4.9) |
| COC[C@H](N)Cc1sc2c(NCc3ccco3)nc(Cl)nc2c1C [Cpd 76, 6-[(2R)-2-amino-3-methoxypropyl]-2-chloro-N-[(furan-2-yl)methyl]-7-methylthieno[3,2-d]pyrimidin-4-amine] | ***** (<0.005 μM) | ***** (>4.9) |
| CCc1c(C[C@H](C)N)sc2c(NCc3ccco3)nc(Cl)nc12 [Cpd 77, 6-[(2S)-2-aminopropyl]-2-chloro-7-ethyl-N-[(furan-2-yl)methyl]thieno[3,2-d]pyrimidin-4-amine] | **** (between >0.005 μM and ≤0.02 μM) | ***** (>4.9) |
| Cc1c(C[C@H](C)NC2CCC2)sc2c(NCc3ccco3)nc(Cl)nc12 [Cpd 78, 2-chloro-6-[(2S)-2-(cyclobutylamino)propyl]-N-[(furan-2-yl)methyl]-7-methylthieno[3,2-d]pyrimidin-4-amine] | *** (between >0.02 μM and ≤0.5 μM) | *** (between >2.9 and <3.9) |
| CN[C@@H](C)Cc1sc2c(NCc3ccco3)nc(Cl)nc2c1C [Cpd 79, 2-chloro-N-[(furan-2-yl)methyl]-7-methyl-6-[(2S)-2-(methylamino)propyl]thieno[3,2-d]pyrimidin-4-amine] | *** (between >0.02 μM and ≤0.5 μM) | **** (between >3.9 and <4.9) |
| Clc1nc(NCc2cccs2)c2scc(Br)c2n1 [Cpd 80, 7-bromo-2-chloro-N-[(thiophen-2-yl)methyl]thieno[3,2-d]pyrimidin-4-amine] | *** (between >0.02 μM and ≤0.5 μM) | ***** (>4.9) |
| Cc1c(C[C@H](C)N)sc2c(NCc3ccnn3C)nc(Cl)nc12 [Cpd 81, 6-[(2S)-2-aminopropyl]-2-chloro-7-methyl-N-[(1-methyl-1H-pyrazol-5-yl)methyl]thieno[3,2-d]pyrimidin-4-amine] | * (EC2×>1 μM) | * (MFI<1.9) |
| C[C@H](N)Cc1sc2c(NCc3cccs3)nc(Cl)nc2c1Br [Cpd 82, 6-[(2S)-2-aminopropyl]-7-bromo-2-chloro-N-[(thiophen-2-yl)methyl]thieno[3,2-d]pyrimidin-4-amine] | ***** (<0.005 μM) | ***** (>4.9) |
